Measurements reported in ChEMBL document CHEMBL1914343, “Recent progress in synthesis and bioactivity studies of indolizines” (Eur J Med Chem, 2011).

Assays:
[1] = Inhibition of soybean arachidonate 15-lipoxygenase; design: species or system Glycine max
[2] = system: Radical scavenging activity; experiment: Antioxidant activity assessed as DPPH radical scavenging activity at 667 uM after 15 mins; assay type: functional
[3] = Antioxidant activity assessed as inhibition of lipid peroxidation after 30 mins; assay type: functional
[4] = system: Mycobacterium tuberculosis; experiment: Antimycobacterial activity against Mycobacterium tuberculosis H37Rv ATCC 27294 at 6.25 ug/mL by microplate alamar blue assay; assay type: functional
[5] = target: T1, Polyunsaturated fatty acid lipoxygenase ALOX15 (Oryctolagus cuniculus, UniProt P12530); experiment: Inhibition of rabbit reticulocytes arachidonate 15-lipoxygenase
T1 sequence (P12530 whole entry): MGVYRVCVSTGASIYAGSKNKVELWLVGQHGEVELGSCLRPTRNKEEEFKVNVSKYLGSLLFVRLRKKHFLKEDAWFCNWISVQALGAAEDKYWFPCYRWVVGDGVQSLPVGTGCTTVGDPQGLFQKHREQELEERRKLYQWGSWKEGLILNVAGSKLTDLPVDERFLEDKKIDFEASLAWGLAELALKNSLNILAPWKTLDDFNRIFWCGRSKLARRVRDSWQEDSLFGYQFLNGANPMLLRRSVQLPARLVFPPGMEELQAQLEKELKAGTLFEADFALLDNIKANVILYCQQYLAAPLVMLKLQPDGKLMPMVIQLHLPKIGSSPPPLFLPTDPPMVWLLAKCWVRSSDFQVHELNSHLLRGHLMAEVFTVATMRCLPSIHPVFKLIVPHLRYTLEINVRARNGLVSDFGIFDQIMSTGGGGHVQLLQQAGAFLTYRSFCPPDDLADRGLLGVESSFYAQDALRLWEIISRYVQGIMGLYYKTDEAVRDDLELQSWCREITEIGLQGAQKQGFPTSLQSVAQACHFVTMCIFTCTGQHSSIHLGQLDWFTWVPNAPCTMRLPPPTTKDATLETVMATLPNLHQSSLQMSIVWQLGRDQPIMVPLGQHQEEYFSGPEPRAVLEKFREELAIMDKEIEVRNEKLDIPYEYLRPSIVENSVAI

| SMILES | IC50 [1] [µM] | Activity [2] [%] | IC50 [3] [µM] | inhibition at 6.25 µg/mL [4] [%] | IC50 [5] [µM] |
| --- | --- | --- | --- | --- | --- |
| N#Cc1ccn2c(-c3ccccc3)c(-c3ccccc3)c(OS(=O)c3ccsc3)c2c1 (stereo not given) | 23 |  |  |  |  |
| N#Cc1ccn2c(-c3ccccc3)c(-c3ccccc3)c(OCc3ccc(Cl)cc3)c2c1 | 31 | 1.3 |  |  |  |
| Cc1ccc(S(=O)(=O)Oc2c(-c3ccccc3)c(-c3ccccc3)n3ccccc23)cc1 | 25 |  |  |  |  |
| N#Cc1ccn2c(-c3ccccc3)c(-c3ccccc3)c(Br)c2c1 |  |  | > 100 | 69 |  |
| N#Cc1ccn2c(-c3ccccc3)c(-c3ccccc3)c(-c3ccco3)c2c1 | 24 | -0.6 | > 100 |  |  |
| COc1ccc(C(=O)Oc2c(-c3ccccc3)c(-c3ccccc3)n3ccc(C#N)cc23)cc1 | 28 | 5.4 |  |  |  |
| N#Cc1ccn2c(-c3ccccc3)c(-c3ccccc3)c(Cc3ccccc3)c2c1 | 27 |  |  | 43 | 46 |
| Cc1ccc(S(=O)(=O)c2c(-c3ccccc3)c(-c3ccccc3)n3ccc(C#N)cc23)cc1 | 29 |  |  |  |  |
| CS(=O)(=O)Oc1c(-c2ccccc2)c(-c2ccccc2)n2ccc(C#N)cc12 | 22 |  |  |  |  |
| Cc1ccc(S(=O)(=O)Oc2c(-c3ccccc3)c(-c3ccccc3)n3ccc(C#N)cc23)cc1 | 17 |  | 3.64 |  | 25 |
| Cc1ccc(S(=O)(=O)Oc2c(-c3ccc(Cl)cc3)c(-c3ccc(Cl)cc3)n3ccc(C#N)cc23)cc1 | 20 |  |  |  |  |
| COc1ccccc1-c1c(-c2ccccc2)c(-c2ccccc2)n2ccc(C#N)cc12 | 20 | -0.2 | > 100 |  |  |
| CC(C)S(=O)(=O)Oc1c(-c2ccccc2)c(-c2ccccc2)n2ccc(C#N)cc12 | 42 |  |  |  |  |
| Cc1c(-c2ccccc2)c(-c2ccccc2)n2ccc(C#N)cc12 | 27 | -0.9 |  | 41 |  |
| N#Cc1ccn2c(-c3ccc(F)cc3)c(-c3ccc(F)cc3)cc2c1 | 30 |  |  |  |  |
| Cc1ccc(COc2c(-c3ccccc3)c(-c3ccccc3)n3ccc(C#N)cc23)cc1 | 37 | -0.8 |  |  |  |
| N#Cc1ccn2c(-c3ccccc3)c(-c3ccccc3)c(OS(=O)(=O)c3ccc(Cl)cc3)c2c1 | 22 |  |  |  |  |
| N#Cc1ccn2c(-c3ccccc3)c(-c3ccccc3)c(OCc3cccc(Cl)c3)c2c1 | 31 | -0.1 |  |  |  |
| N#Cc1ccn2c(-c3ccccc3)c(-c3ccccc3)c(OS(=O)c3cccs3)c2c1 (stereo not given) | 21 |  |  |  |  |
| Cc1ccc(S(=O)(=O)Oc2c(-c3ccccc3)c(-c3ccccc3)n3ccc(C#N)cc23)cc1C | 19 |  |  |  |  |
| CC(=O)c1ccn2c(-c3ccccc3)c(-c3ccccc3)c(OS(=O)(=O)c3ccc(C)cc3)c2c1 | 23 |  |  |  |  |
| N#Cc1ccn2c(-c3ccccc3)c(-c3ccccc3)c(C(=O)c3ccccc3)c2c1 | 23 |  |  | 33 | 43 |
| CC(C)c1ccc(S(=O)(=O)Oc2c(-c3ccccc3)c(-c3ccccc3)n3ccc(C#N)cc23)cc1 | 16 |  |  |  |  |

| SMILES | IC50 [1] [µM] | Activity [2] [%] | IC50 [3] [µM] | inhibition at 6.25 µg/mL [4] [%] | IC50 [5] [µM] |
| --- | --- | --- | --- | --- | --- |
| C=Cc1c(-c2ccccc2)c(-c2ccccc2)n2ccc(C#N)cc12 |  |  | > 100 |  |  |
| N#Cc1ccn2c(-c3ccccc3)c(-c3ccccc3)c(OCOCc3ccccc3)c2c1 | 27 | 0.1 |  |  | 39 |
| CC(O)(c1ccccc1)c1c(-c2ccccc2)c(-c2ccccc2)n2ccc(C#N)cc12 (stereo not given) | 17 |  |  | 71 |  |
| CC(=O)Oc1c(-c2ccccc2)c(-c2ccccc2)n2ccc(C#N)cc12 | 31 | -0.5 | 0.15 |  | 75 |
| N#Cc1ccn2c(-c3ccccc3)c(-c3ccccc3)c(-c3ccsc3)c2c1 | 19 | 0 | > 100 |  |  |
| COC(c1ccccc1)c1c(-c2ccccc2)c(-c2ccccc2)n2ccc(C#N)cc12 (stereo not given) | 21 |  |  | 74 |  |
| N#Cc1ccn2c(-c3ccccc3)c(-c3ccccc3)c(CO)c2c1 | 26 |  |  | 67 | 34 |
| N#Cc1ccn2c(-c3ccccc3)c(-c3ccccc3)cc2c1 | 30 | -0.2 | > 100 | 9 | 51 |
| COc1cccc(C(=O)Oc2c(-c3ccccc3)c(-c3ccccc3)n3ccc(C#N)cc23)c1 | 28 | 1.2 |  |  |  |
| N#Cc1ccn2c(-c3ccccc3)c(-c3ccccc3)c(C=O)c2c1 | 29 |  |  | 35 | 61 |
| COc1ccc(S(=O)(=O)Oc2c(-c3ccccc3)c(-c3ccccc3)n3ccc(C#N)cc23)c(OC)c1 | 27 |  |  |  |  |
| COc1ccc(OC)c(S(=O)(=O)Oc2c(-c3ccccc3)c(-c3ccccc3)n3ccc(C#N)cc23)c1 | 15 |  |  |  |  |
| COc1ccccc1C(=O)Oc1c(-c2ccccc2)c(-c2ccccc2)n2ccc(C#N)cc12 | 30 | 4.7 |  |  |  |
| COc1ccc(S(=O)(=O)Oc2c(-c3ccc(C)cc3)c(-c3ccc(C)cc3)n3ccc(C#N)cc23)cc1 | 25 |  |  |  |  |
| N#Cc1ccn2c(-c3ccccc3)c(-c3ccccc3)c(OS(=O)(=O)c3ccccc3)c2c1 | 24 |  |  |  |  |
| CS(=O)(=O)c1ccc(S(=O)(=O)Oc2c(-c3ccccc3)c(-c3ccccc3)n3ccc(C#N)cc23)cc1 | 24 |  |  |  |  |
| COc1cccc(-c2c(-c3ccccc3)c(-c3ccccc3)n3ccc(C#N)cc23)c1 | 20 | -0.3 | > 100 |  |  |
| CN(C)S(=O)(=O)Oc1c(-c2ccccc2)c(-c2ccccc2)n2ccc(C#N)cc12 | 25 |  |  |  |  |
| N#Cc1ccn2c(-c3ccccc3)c(-c3ccccc3)c(OCc3ccccc3)c2c1 | 31 | 0.8 |  |  |  |
| COc1ccc(C(O)c2c(-c3ccccc3)c(-c3ccccc3)n3ccc(C#N)cc23)cc1 (stereo not given) | 17 |  |  | 87 |  |
| COc1ccc(-c2c(-c3ccccc3)c(-c3ccccc3)n3ccc(C#N)cc23)cc1 | 20 | -0.9 | > 100 |  | 37 |
| N#Cc1ccn2c(-c3ccccc3)c(-c3ccccc3)c(-c3ccccc3)c2c1 | 28 |  | > 100 | 8 |  |
| N#Cc1ccn2c(-c3ccccc3)c(-c3ccccc3)c(OCc3ccc(F)cc3)c2c1 | 35 | 1.8 |  |  |  |

| SMILES | IC50 [1] [µM] | Activity [2] [%] | IC50 [3] [µM] | inhibition at 6.25 µg/mL [4] [%] | IC50 [5] [µM] |
| --- | --- | --- | --- | --- | --- |
| N#Cc1ccn2c(-c3ccccc3)c(-c3ccccc3)c(OS(=O)(=O)C(F)(F)F)c2c1 | 46 | 79.5 | 0.6 |  | 59 |
| CC(O)c1c(-c2ccccc2)c(-c2ccccc2)n2ccc(C#N)cc12 (stereo not given) | 26 |  |  | 78 |  |
| CCCCc1c(OS(=O)(=O)c2ccc(C)cc2)c2cc(C#N)ccn2c1CCCC | 30 |  |  |  |  |
| COc1ccc(S(=O)(=O)Oc2c(-c3ccccc3)c(-c3ccccc3)n3ccc(C#N)cc23)cc1 | 25 |  |  |  |  |
| CC(=O)c1c(-c2ccccc2)c(-c2ccccc2)n2ccc(C#N)cc12 | 23 |  | > 100 | 21 | 44 |
| N#Cc1ccn2c(-c3ccccc3)c(-c3ccccc3)c(OS(=O)(=O)c3ccc(C(F)(F)F)cc3)c2c1 | 23 |  |  |  |  |
| N#Cc1ccn2c(-c3ccccc3)c(-c3ccccc3)c(-c3cccs3)c2c1 | 20 | -1.8 | > 100 |  |  |
| N#Cc1ccn2c(-c3ccccc3)c(-c3ccccc3)c(OCOC(COCc3ccccc3)COCc3ccccc3)c2c1 | 31 | 4.2 |  |  |  |
| CCc1c(OS(=O)(=O)c2ccc(C)cc2)c2cc(C#N)ccn2c1CC | 29 |  |  |  |  |
| O=c1c(O)c(-c2ccc(O)c(O)c2)oc2cc(O)cc(O)c12 [QUERCETIN] | 51 |  |  |  | 37 |
| Cc1ccc(-c2cc3cc(C#N)ccn3c2-c2ccc(C)cc2)cc1 | 27 |  |  |  |  |
| Cc1cc(C)c(S(=O)(=O)Oc2c(-c3ccccc3)c(-c3ccccc3)n3ccc(C#N)cc23)c(C)c1 | 17 |  |  |  |  |
| COc1ccc(-c2c(OS(=O)(=O)c3ccc(C)cc3)c3cc(C#N)ccn3c2-c2ccc(OC)cc2)cc1 | 24 |  |  |  |  |
| COc1ccccc1COc1c(-c2ccccc2)c(-c2ccccc2)n2ccc(C#N)cc12 | 29 | 1.6 |  |  |  |
| Cc1ccc(-c2c(OS(=O)(=O)c3ccc(C)cc3)c3cc(C#N)ccn3c2-c2ccc(C)cc2)cc1 | 20 |  |  |  |  |
| COc1c(-c2ccccc2)c(-c2ccccc2)n2ccc(C#N)cc12 | 33 | -0.6 | 22 |  | 77 |
| N#Cc1ccn2c(-c3ccc(Cl)cc3)c(-c3ccc(Cl)cc3)cc2c1 | 33 |  |  |  |  |
| Cc1ccc(S(=O)(=O)Oc2c(-c3ccc(F)cc3)c(-c3ccc(F)cc3)n3ccc(C#N)cc23)cc1 | 22 |  |  |  |  |
| Cc1ccc(S(=O)(=O)Oc2c(-c3ccccc3)c(-c3ccccc3)n3ccc(C=O)cc23)cc1 | 20 |  |  |  |  |
| CCS(=O)(=O)Oc1c(-c2ccccc2)c(-c2ccccc2)n2ccc(C#N)cc12 | 28 |  |  |  |  |
| Cc1ccccc1S(=O)(=O)Oc1c(-c2ccccc2)c(-c2ccccc2)n2ccc(C#N)cc12 | 22 |  |  |  |  |
| COc1ccc(COc2c(-c3ccccc3)c(-c3ccccc3)n3ccc(C#N)cc23)cc1 | 32 | 33.3 |  |  |  |
